Measured values from patent US8778896B2, “Levoisovalerylspiramycin I, II or III, preparations, preparation methods and uses thereof” (Shenyang Tonglian Group Co., Ltd., priority 2010, dated 2014).
In brackets after ≈: the same amount, converted by molar mass.

Experiments:
[1] = test system: Mycoplasma Urealyticum and Mycoplasma Pneumoniae strains; assay: Mycoplasma in vitro MIC (U-PPLO broth); type: cell-based; conditions: for MIC: Mycoplasma, determined 4 times, final MIC (24 h), read-out: MIC; for Uu resistant effect: in words
Description: 1. Test methods: adding U-PPLO 0.8 ml to each pore of aseptic 12-pore cell culture plate (adding 0.9 ml to inoculum control pore and 1.0 ml to medium control pore).
2. Add 10^4CCU/ml Uu inoculum 0.1 ml to each experimental pore. The final dose in the pore is 10^3CCU/ml (the medium control pore will not be added with inoculum).
3. Divide into 3 groups (100 μg/ml, 10 μg/ml and 1 μg/ml antibiotic stock solution), Use aseptic Tip to add antibiotic for test to each pore: 100 μl, 50 μl, 25 μl, 12.5 μl according to the double degradation concentration gradient. (The inoculum and medium control pores will not be added with the antibiotic, and meanwhile the antibiotic control pore is arranged.)
4. Blend all pores evenly. Seal the culture plate by tapes and place it in a 37[…] box for culture.
5. On 17-24 hours after the test, observe and record the Uu growth situation. When Uu inoculum control pore presents a positive growth, the minimal antibiotic concentration, which can suppress the growth of Uu, is the MIC of sample.

S. epidermidis (115) = assay: Clinical isolates, agar double dilution method; type: cell-based; conditions: Staphylococcus epidermidis, 115 clinical isolates of S. epidermidis; for MIC50: read-out: MIC50; for MIC90: read-out: MIC90
gonococcus (10) = assay: Clinical isolates, agar double dilution method; type: cell-based; conditions: 10 clinical isolates of gonococcus; for MIC50: read-out: MIC50; for MIC90: read-out: MIC90
staphylococcus aureus16 = assay: MIC against the infecting test organism; type: cell-based, staphylococcus aureus; conditions: read-out: MIC
[2] = test system: pyogenic streptococcus 772; assay: Curative effect on mouse with abdominal infection (ED50); type: in vivo; conditions: Streptococcus, 772, 168 h, pyogenic streptococcus 772, challenging dose 6.9 × 10^3 CFU/0.5 ml, deaths in 7 days, Bliss, read-out: ED50
Description: (§1) Test method: preparation of infection bacterial liquid: taking out the test bacterial liquid which is kept in a refrigerator at −80[…] to room temperature for about 1 h, then inoculating streptococcus pneumonia, pyogenic streptococcus and enterococcus absorbing 0.1 ml bacterial liquid respectively to 2 ml MH broth (add 10% inactivated horse serum), and inoculating 0.1 ml bacterial liquid of staphylococcus aureus to 2 ml MH broth according to the same method above; putting it in an incubator at 37[…] to be cultivated for 18 h, to obtain original bacterial liquid; diluting the original bacterial liquid with 5% gastric mucin to make animals infected with 100% lethal bacteria, to obtain infection bacterial liquid.
(§2) The clinical route of administration of carrimycin is proposed to be oral administration, thus intragastric administration is adopted in carrimychin test. Levoisovalerylspiramycin I (obtained in Embodiment 1) and of crystalline compound of levoisovalerylspiramycin I (prepared in Embodiment 27) are fed to animals via […].
(§3) After the mice are infected, respectively feed each mouse 0.2 ml via intragastric administration at 0.5 to 6 h, and they have no adverse reaction. Observe the number of deaths in 7 days, and calculate the 50% effective dose (ED50) of each drug for the infected mouse and compare the protective effect of drugs by Bliss program.

[3] = test system: pyogenic streptococcus 102; assay: as above; type: in vivo; conditions: Streptococcus, 102, 168 h, pyogenic streptococcus 102, challenging dose 7.8 × 10^4 CFU/0.5 ml, deaths in 7 days, Bliss, read-out: ED50
Description: as §1, §2, §3

[4] = test system: pyogenic streptococcus 119; assay: as above; type: in vivo; conditions: Streptococcus, 119, 168 h, pyogenic streptococcus 119, challenging dose 4.9 × 10^4 CFU/0.5 ml, deaths in 7 days, Bliss, read-out: ED50
Description: as §1, §2, §3

[5] = test system: pyogenic streptococcus 772; assay: MIC against the infecting test organism; type: cell-based; conditions: read-out: MIC
[6] = test system: Chlamydia Pneumoniae CWL-029; assay: Chlamydia in vitro MIC, HEp-2 cells, immunofluorescence; type: cell-based; conditions: Chlamydia pneumoniae, 72 h, Chlamydia Pneumoniae CWL-029, HEp-2 cells, read-out: MIC
enterococcus32 [7] = assay: Curative effect on mouse with abdominal infection (ED50); type: in vivo, enterococcus; conditions: Enterococcus, 168 h, enterococcus32, challenging dose 5.4 × 10^4 CFU/0.5 ml, deaths in 7 days, Bliss, read-out: ED50
Description: as §1, §2, §3

enterococcus (106) = assay: Clinical isolates, agar double dilution method; type: cell-based; conditions: 106 clinical isolates of enterococcus; for MIC50: read-out: MIC50; for MIC90: read-out: MIC90
[8] = test system: streptococcus pneumoniae3; assay: MIC against the infecting test organism; type: cell-based, streptococcus pneumoniae; conditions: read-out: MIC
[9] = Acute toxicity on mice via oral administration; conditions: 4000 mg/kg
Description: Both mice and rats take drugs orally (levoisovalerylspiramycin I, II and III prepared in Embodiment 1)
After observing the mice and rats for two days before test, and those without abnormal conditions is carried out test. Don't give anything to eat to mice and rats overnight before test. […] In this test, feed drugs to mice and rats respectively as per 4000 mg/kg, wherein, mice follow 100 mg/ml, with intragastric administration capacity of 0.6-0.8 ml per one, while rats 173 mg/ml, with intragastric administration capacity of 0.8˜1.0 ml/50 g. Observe those taking drugs for one week for toxic reaction and death.

[10] = test system: pyogenic streptococcus (93); assay: Clinical isolates, agar double dilution method; type: cell-based; conditions: 93 clinical isolates of pyogenic streptococcus; for MIC50: read-out: MIC50; for MIC90: read-out: MIC90
enterococcus32 [11] = assay: MIC against the infecting test organism; type: cell-based, enterococcus; conditions: Enterococcus, read-out: MIC
[12] = test system: streptococcus pneumoniae57; assay: MIC against the infecting test organism; type: cell-based, streptococcus pneumoniae; conditions: read-out: MIC
[13] = test system: streptococcus pneumoniae18; assay: MIC against the infecting test organism; type: cell-based, streptococcus pneumoniae; conditions: read-out: MIC
[14] = test system: staphylococcus aureus (155); assay: Clinical isolates, agar double dilution method; type: cell-based; conditions: 155 clinical isolates of staphylococcus aureus; for MIC50: read-out: MIC50; for MIC90: read-out: MIC90
[15] = test system: pyogenic streptococcus 119; assay: MIC against the infecting test organism; type: cell-based; conditions: read-out: MIC
staphylococcus aureus21 = assay: MIC against the infecting test organism; type: cell-based, staphylococcus aureus; conditions: read-out: MIC
[16] = test system: Chlamydia Trachomatis B/TW-5/OT; assay: Chlamydia in vitro MIC, McCoy cells, immunofluorescence; type: cell-based; conditions: 48 hours, read-out: MIC

SMILES	Uu resistant effect [1]	MIC50 (S. epidermidis (115)) [µg/mL]	MIC90 (S. epidermidis (115)) [µg/mL]	MIC range (gonococcus (10)) [µg/mL]	MIC50 (gonococcus (10)) [µg/mL]	MIC90 (gonococcus (10)) [µg/mL]	MIC (staphylococcus aureus16) [µg/mL]	ED50 [2] [mg/kg]	ED50 [3] [mg/kg]	ED50 [4] [mg/kg]	MIC [5] [µg/mL]	MIC [6] [µg/mL]	ED50 (enterococcus32 [7]) [mg/kg]	MIC50 (enterococcus (106)) [µg/mL]	MIC90 (enterococcus (106)) [µg/mL]	MIC [8] [µg/mL]	LD50 at 1 week ([9]; mouse, in vivo, po) [mg/kg]	MIC50 [10] [µg/mL]	MIC90 [10] [µg/mL]	MIC (enterococcus32 [11]) [µg/mL]	other results
COC1C(OC(C)=O)CC(=O)OC(C)C/C=C/C=C/C(OC2CCC(N(C)C)C(C)O2)C(C)CC(CC=O)C1OC1OC(C)C(OC2CC(C)(O)C(OC(=O)CC(C)C)C(C)O2)C(N(C)C)C1O (centres unmarked) [Levoisovalerylspiramycin II, levoisovalerylspiramycin II]	favorable Uu resistant effect	1 (≈ 1.03 µM)	64 (≈ 66 µM)	0.12 to 16	1 (≈ 1.03 µM)	4 (≈ 4.13 µM)	0.25 (≈ 0.258 µM)	24.6	63.2	52.8	0.06 (≈ 0.0619 µM)	≤ 0.016	70.2	1 (≈ 1.03 µM)	16 (≈ 16.5 µM)	0.12 (≈ 0.124 µM)	> 4000	0.25 (≈ 0.258 µM)	32 (≈ 33 µM)	0.25 (≈ 0.258 µM)	MIC [1]: 0.025 to 0.125 µg/mL (≈ 0.0258 to 0.129 µM); Mortality rate (%) ([9]; mouse, in vivo, po, 1 week): 35%; mortality ([9]; mouse, in vivo, po, 1 week): 7; MIC [12]: 0.06 µg/mL (≈ 0.0619 µM); MIC [13]: 0.03 µg/mL (≈ 0.031 µM); MIC50 [14]: 1 µg/mL (≈ 1.03 µM); MIC90 [14]: 32 µg/mL (≈ 33 µM); MIC [15]: 0.12 µg/mL (≈ 0.124 µM); MIC (staphylococcus aureus21): 0.5 µg/mL (≈ 0.516 µM); MIC [16]: 0.25 µg/mL (≈ 0.258 µM)
COC1C(O)CC(=O)OC(C)C/C=C/C=C/C(OC2CCC(N(C)C)C(C)O2)C(C)CC(CC=O)C1OC1OC(C)C(OC2CC(C)(O)C(OC(=O)CC(C)C)C(C)O2)C(N(C)C)C1O (centres unmarked) [Levoisovalerylspiramycin I, levoisovalerylspiramycin I]	favorable Uu resistant effect	1 (≈ 1.08 µM)	32 (≈ 34.5 µM)	0.12 to 16	1 (≈ 1.08 µM)	4 (≈ 4.31 µM)	0.5 (≈ 0.539 µM)	26.1	66.4	57.2	0.06 (≈ 0.0647 µM)	0.016 (≈ 0.0173 µM)	77.5	1 (≈ 1.08 µM)	32 (≈ 34.5 µM)	0.12 (≈ 0.129 µM)	> 4000	0.25 (≈ 0.27 µM)	32 (≈ 34.5 µM)	0.5 (≈ 0.539 µM)	MIC [1]: 0.025 to 0.125 µg/mL (≈ 0.027 to 0.135 µM); Mortality rate (%) ([9]; mice, oral): 35%; mortality ([9]; mice, oral, deaths of 20 animals, observed one week): 7; MIC [12]: 0.06 µg/mL (≈ 0.0647 µM); MIC [13]: 0.03 µg/mL (≈ 0.0324 µM); MIC50 [14]: 1 µg/mL (≈ 1.08 µM); MIC90 [14]: 64 µg/mL (≈ 69 µM); MIC [15]: 0.12 µg/mL (≈ 0.129 µM); MIC (staphylococcus aureus21): 0.5 µg/mL (≈ 0.539 µM); MIC [16]: 0.25 µg/mL (≈ 0.27 µM)
CCC(=O)OC1CC(=O)OC(C)C/C=C/C=C/C(OC2CCC(N(C)C)C(C)O2)C(C)CC(CC=O)C(OC2OC(C)C(OC3CC(C)(O)C(OC(=O)CC(C)C)C(C)O3)C(N(C)C)C2O)C1OC (centres unmarked) [Levoisovalerylspiramycin III, levoisovalerylspiramycin III]	favorable Uu resistant effect	1 (≈ 1.02 µM)	32 (≈ 32.5 µM)	0.12 to 16	1 (≈ 1.02 µM)	4 (≈ 4.07 µM)	0.25 (≈ 0.254 µM)	24.6	63.2	52.8	0.06 (≈ 0.061 µM)	0.016 (≈ 0.0163 µM)	70.2	2 (≈ 2.03 µM)	64 (≈ 65.1 µM)	0.12 (≈ 0.122 µM)	> 4000	0.25 (≈ 0.254 µM)	32 (≈ 32.5 µM)	0.25 (≈ 0.254 µM)	Mortality rate (%) ([9]; mouse, in vivo, po, 1 week): 35%; mortality ([9]; mouse, in vivo, po, 1 week): 7; MIC [12]: 0.06 µg/mL (≈ 0.061 µM); MIC [13]: 0.03 µg/mL (≈ 0.0305 µM); MIC50 [14]: 2 µg/mL (≈ 2.03 µM); MIC90 [14]: 32 µg/mL (≈ 32.5 µM); MIC [15]: 0.12 µg/mL (≈ 0.122 µM); MIC (staphylococcus aureus21): 0.5 µg/mL (≈ 0.509 µM); MIC [16]: 0.25 µg/mL (≈ 0.254 µM)
